In PubChem BioAssay AID1259407 (Chemical Carcinogenesis Research Information System (CCRIS), 2018):
Active and inactive are the calls of the source. How the calls were made is not given here.

Test system: CCRIS mutagenicity, Ames/micronucleus/aberration tests
Assay: CCRIS mutagenicity studies
[1] = Test System: MOUSE LYMPHOMA, Strain/Indicator: L5178Y (TK+/TK-), Metabolic Activation: NONE, Method: SUSPENSION/PLATE
[2] = Test System: AMES SALMONELLA TYPHIMURIUM, Strain/Indicator: TA98, Metabolic Activation: NONE, Method: PREINCUBATION
[3] = Test System: AMES SALMONELLA TYPHIMURIUM, Strain/Indicator: TA100, Metabolic Activation: NONE, Method: PREINCUBATION
[4] = Test System: AMES SALMONELLA TYPHIMURIUM, Strain/Indicator: TA1535, Metabolic Activation: NONE, Method: PREINCUBATION
[5] = Test System: AMES SALMONELLA TYPHIMURIUM, Strain/Indicator: TA98, Metabolic Activation: NONE, Method: STANDARD PLATE
[6] = Test System: AMES SALMONELLA TYPHIMURIUM, Strain/Indicator: TA100, Metabolic Activation: NONE, Method: STANDARD PLATE

O=C(NCO)c1ccc(Cl)cc1
mutagenic call (Test System: AMES SALMONELLA TYPHIMURIUM, Strain/Indicator: TA100, Metabolic Activation: RAT, LIVER, S-9, AROCLOR AND 3'-PHOSPHOADENOSINE-5'-PHOSPHOSULPHATE GENERATING SYSTEM, Method: PREINCUBATION): inactive; negative
mutagenic call (Test System: AMES SALMONELLA TYPHIMURIUM, Strain/Indicator: TA100, Metabolic Activation: RAT, LIVER, S-9, AROCLOR AND ACETYL COENZYME A, Method: PREINCUBATION): inactive; negative
mutagenic call (Test System: AMES SALMONELLA TYPHIMURIUM, Strain/Indicator: TA100, Metabolic Activation: RAT, LIVER, S-9, AROCLOR, Method: PREINCUBATION): inactive; negative

CCCCCC(O)/C=C/C=O (stereo not drawn)
mutagenic call (End Point: IN VITRO CHROMOSOMAL ABERRATIONS, Test System: RAT HEPATOCYTES, Metabolic Activation: NONE): active; positive
mutagenic call (End Point: IN VITRO CHROMOSOMAL ABERRATIONS, Test System: SWINE- BRAIN ENDOTHELIAL CELLS, Metabolic Activation: NONE): active; positive
mutagenic call (End Point: IN VITRO MICRONUCLEUS, Test System: RAT HEPATOCYTES, Metabolic Activation: NONE): active; positive
mutagenic call (End Point: IN VITRO MICRONUCLEUS, Test System: SWINE- BRAIN ENDOTHELIAL CELLS, Metabolic Activation: NONE): active; positive
mutagenic call (Test System: AMES SALMONELLA TYPHIMURIUM, Strain/Indicator: TA100, Metabolic Activation: NONE): inactive; negative
mutagenic call (Test System: AMES SALMONELLA TYPHIMURIUM, Strain/Indicator: TA104, Metabolic Activation: NONE): inactive; negative
mutagenic call (Test System: CHINESE HAMSTER V-79, Strain/Indicator: V-79/6-THIOGUANINE, Metabolic Activation: NONE): active; positive
mutagenic call [1]: active; positive; administered as acetate

C=C(CC)C(=O)c1ccc(OCC(=O)O)c(Cl)c1Cl
mutagenic call (Test System: AMES SALMONELLA TYPHIMURIUM, Strain/Indicator: TA97, Metabolic Activation: HAMSTER, LIVER, S-9, AROCLOR 1254 (10 OR 30%), Method: PREINCUBATION): inactive; negative
mutagenic call (Test System: AMES SALMONELLA TYPHIMURIUM, Strain/Indicator: TA97, Metabolic Activation: NONE, Method: PREINCUBATION): inactive; negative
mutagenic call (Test System: AMES SALMONELLA TYPHIMURIUM, Strain/Indicator: TA97, Metabolic Activation: RAT, LIVER, S-9, AROCLOR 1254 (10 OR 30%), Method: PREINCUBATION): inactive; negative
mutagenic call (Test System: AMES SALMONELLA TYPHIMURIUM, Strain/Indicator: TA98, Metabolic Activation: HAMSTER, LIVER, S-9, AROCLOR 1254 (10 OR 30%), Method: PREINCUBATION): inactive; negative
mutagenic call [2]: inactive; negative
mutagenic call (Test System: AMES SALMONELLA TYPHIMURIUM, Strain/Indicator: TA98, Metabolic Activation: RAT, LIVER, S-9, AROCLOR 1254 (10 OR 30%), Method: PREINCUBATION): inactive; negative
mutagenic call (Test System: AMES SALMONELLA TYPHIMURIUM, Strain/Indicator: TA100, Metabolic Activation: HAMSTER, LIVER, S-9, AROCLOR 1254 (10 OR 30%), Method: PREINCUBATION): inactive; negative
mutagenic call [3]: inactive; negative
mutagenic call (Test System: AMES SALMONELLA TYPHIMURIUM, Strain/Indicator: TA100, Metabolic Activation: RAT, LIVER, S-9, AROCLOR 1254 (10 OR 30%), Method: PREINCUBATION): inactive; negative
mutagenic call (Test System: AMES SALMONELLA TYPHIMURIUM, Strain/Indicator: TA1535, Metabolic Activation: HAMSTER, LIVER, S-9, AROCLOR 1254 (10 OR 30%), Method: PREINCUBATION): inactive; negative
mutagenic call [4]: inactive; negative
mutagenic call (Test System: AMES SALMONELLA TYPHIMURIUM, Strain/Indicator: TA1535, Metabolic Activation: RAT, LIVER, S-9, AROCLOR 1254 (10 OR 30%), Method: PREINCUBATION): inactive; negative

c1cnc2c(c1)ccc1cccnc12
mutagenic call (Test System: AMES SALMONELLA TYPHIMURIUM, Strain/Indicator: TA98, Metabolic Activation: HAMSTER, LIVER, S-9, AROCLOR 1254 (10%), Method: PREINCUBATION): inactive; negative
mutagenic call [2]: inactive; negative
mutagenic call (Test System: AMES SALMONELLA TYPHIMURIUM, Strain/Indicator: TA98, Metabolic Activation: RAT, LIVER, S-9, AROCLOR 1254 (10%), Method: PREINCUBATION): inactive; negative
mutagenic call (Test System: AMES SALMONELLA TYPHIMURIUM, Strain/Indicator: TA100, Metabolic Activation: HAMSTER, LIVER, S-9, AROCLOR 1254 (10%), Method: PREINCUBATION): inactive; negative
mutagenic call [3]: inactive; negative
mutagenic call (Test System: AMES SALMONELLA TYPHIMURIUM, Strain/Indicator: TA100, Metabolic Activation: RAT, LIVER, S-9, AROCLOR 1254 (10%), Method: PREINCUBATION): inactive; negative
mutagenic call (Test System: AMES SALMONELLA TYPHIMURIUM, Strain/Indicator: TA100, Metabolic Activation: RAT, LIVER, S-9, PHENOBARBITAL AND 5,6-BENZOFLAVONE, Method: PREINCUBATION): inactive; negative
mutagenic call (Test System: AMES SALMONELLA TYPHIMURIUM, Strain/Indicator: TA1535, Metabolic Activation: HAMSTER, LIVER, S-9, AROCLOR 1254 (10%), Method: PREINCUBATION): inactive; negative
mutagenic call [4]: inactive; negative
mutagenic call (Test System: AMES SALMONELLA TYPHIMURIUM, Strain/Indicator: TA1535, Metabolic Activation: RAT, LIVER, S-9, AROCLOR 1254 (10%), Method: PREINCUBATION): inactive; negative
mutagenic call (Test System: AMES SALMONELLA TYPHIMURIUM, Strain/Indicator: TA1537, Metabolic Activation: HAMSTER, LIVER, S-9, AROCLOR 1254 (10%), Method: PREINCUBATION): inactive; negative
mutagenic call (Test System: AMES SALMONELLA TYPHIMURIUM, Strain/Indicator: TA1537, Metabolic Activation: NONE, Method: PREINCUBATION): inactive; negative
mutagenic call (Test System: AMES SALMONELLA TYPHIMURIUM, Strain/Indicator: TA1537, Metabolic Activation: RAT, LIVER, S-9, AROCLOR 1254 (10%), Method: PREINCUBATION): inactive; negative
mutagenic call [1]: active; positive. reevaluation of results: positive
mutagenic call (Test System: MOUSE LYMPHOMA, Strain/Indicator: L5178Y (TK+/TK-), Metabolic Activation: RAT, LIVER, S-9, AROCLOR 1254, Method: SUSPENSION/PLATE): active; positive. reevaluation of results: positive

CN(C)CCNC(=O)c1cccc2ncc(-c3ccccc3)nc12
mutagenic call (Test System: AMES SALMONELLA TYPHIMURIUM, Strain/Indicator: TA1537, Metabolic Activation: NONE, Method: STANDARD PLATE): active; positive

CC(C)(C)NCC(O)COc1cccc2c1CC(O)C(O)C2 (stereo not drawn)
mutagenic call [5]: inactive; negative
mutagenic call (Test System: AMES SALMONELLA TYPHIMURIUM, Strain/Indicator: TA98, Metabolic Activation: RAT, LIVER, S-9, AROCLOR 1254, Method: STANDARD PLATE): inactive; negative
mutagenic call [6]: inactive; negative
mutagenic call (Test System: AMES SALMONELLA TYPHIMURIUM, Strain/Indicator: TA100, Metabolic Activation: RAT, LIVER, S-9, AROCLOR 1254, Method: STANDARD PLATE): inactive; negative
mutagenic call (Test System: UDS HUMAN HEPATOCYTES, Strain/Indicator: THY INCORP, Metabolic Activation: NONE, Method: AUTORADIOGRAPHY): inactive; negative
mutagenic call (Test System: UDS RAT HEPATOCYTES, Strain/Indicator: THY INCORP, Metabolic Activation: NONE, Method: AUTORADIOGRAPHY): inactive; negative

CNC(=O)CNC(=O)C=[N+]=[N-]
mutagenic call (Test System: UDS RODENT CELLS, Strain/Indicator: THY INCORP (NON-S-PHASE), Metabolic Activation: NONE, Method: AUTORADIOGRAPHY): active; positive

CC1(c2ccc(Cl)cc2)CO1 (stereo not drawn)
mutagenic call [3]: active; positive

O=C(O)/C=C/c1ccc(Cl)cc1
mutagenic call [3]: inactive; negative
mutagenic call (Test System: AMES SALMONELLA TYPHIMURIUM, Strain/Indicator: TA100, Metabolic Activation: RAT, LIVER, S-9, AROCLOR 1254, Method: PREINCUBATION): inactive; negative

C[C@@H]1CC[C@@]2(OC1)O[C@H]1CC3[C@@H]4CC=C5C[C@@H](O[C@@H]6O[C@H](CO)[C@@H](O[C@@H]7O[C@@H](C)[C@H](O)[C@@H](O)[C@H]7O)[C@H](O)[C@H]6O[C@@H]6O[C@@H](C)[C@H](O)[C@@H](O)[C@H]6O)CC[C@]5(C)[C@H]4CC[C@]3(C)[C@H]1[C@@H]2C (stereo partly drawn)
mutagenic call [5]: inactive; negative
mutagenic call (Test System: AMES SALMONELLA TYPHIMURIUM, Strain/Indicator: TA98, Metabolic Activation: RAT, LIVER, S-9, PHENOBARBITAL, Method: STANDARD PLATE): inactive; negative
mutagenic call [6]: inactive; negative
mutagenic call (Test System: AMES SALMONELLA TYPHIMURIUM, Strain/Indicator: TA100, Metabolic Activation: RAT, LIVER, S-9, PHENOBARBITAL, Method: STANDARD PLATE): inactive; negative
